Assays:
[1] = system: C57BL/6J mice; experiment: Fear extinction paradigm (PTSD mouse model); type: in vivo
Text: Effective PTSD treatments facilitate the disassociation between a traumatic memory and the patient's fear response, making cues for the traumatic memory evoke less of a fear response. This is modeled in the mouse fear extinction paradigm (see FIG. 9A) which takes place over 3 days. On day 1 (fear conditioning), mice are trained to acquire a “traumatic memory,” namely associating the conditioned stimulus (CS, tone) to the unconditioned stimulus (US, foot shock). On day 2 (extinction training), they are trained to forget the traumatic memory association by presenting the CS 6 times (with no US) in a novel environment. On day 3 (extinction recall), the mice are “asked” if that tone (CS) still elicits a fearful response, as measured by the time spent freezing when the tone is presented. Less time freezing means better extinction recall. Drugs that improve extinction recall reduce freezing time on day 3, and, therefore, show potential as a PTSD treatment.
Methods: Cued fear conditioning was performed in C57BL/6J mice. On day 1, animals were placed in the chambers and presented with a training session (CS-US pairing). The training consisted of a 2-minute habituation followed by a 30-second, 80 dB tone; during the last 2 seconds of the tone animals received a 1 mA foot shock. This US-CS procedure occurred once for a total of one paired presentation of tone and shock. Freezing behavior (immobility) was recorded in 5-10-see intervals during the session. Percent baseline freezing behavior was determined in the 2-minute habituation period. On day 3, animals were placed in context B, in which tactile and odor cues differed from context A. Following a 2 minute acclimation period animals received 4×30 sec presentations of the CS (tone) in the absence of the US (footshock), with a 45 sec interval between presentations. Freezing was recorded in 5-10-see intervals to measure baseline freezing response to the altered context, and freezing response to each tone cue presentation. […] On day 4 (Post-Extinction Testing in Drug-Free State), animals were placed in Context B. Following a 2 min acclimation period, animals received 4×30 sec extinction tone duration presentations of the CS (tone) in the absence of the US (footshock), with a 45 sec interval between presentations. Freezing was recorded in 5-10-see intervals to measure baseline freezing response to the altered context, and freezing response to each tone cue presentation.

[2] = molecular target: 168 GPCRs (Homo sapiens, UniProt Q8NFJ6); experiment: β-arrestin GPCR screen (PathHunter/GPCRmax), antagonist mode; details: GPCR PROKR2; Antagonist mode; 10 uM
[3] = molecular target: 168 GPCRs (Homo sapiens, UniProt O95838); experiment: as above; details: GLP2R; Antagonist; 1 uM
[4] = molecular target: 168 GPCRs (Homo sapiens, UniProt Q8TDS5); experiment: as above; details: GPCR OXER1; Antagonist mode; 10 uM
[5] = molecular target: 168 GPCRs (Homo sapiens, UniProt P32249); experiment: as above; details: GPCR EBI2; Antagonist mode; 10 uM
[6] = molecular target: 168 GPCRs (Homo sapiens, UniProt P41968); experiment: as above; details: GPCR MC3R; Antagonist mode; 10 uM
[7] = molecular target: 168 GPCRs (Homo sapiens, UniProt P47872); experiment: as above; details: SCTR; Antagonist; 1 uM
[8] = molecular target: 168 GPCRs (Homo sapiens, UniProt P21918); experiment: as above; details: DRD5; Antagonist; 1 uM
[9] = molecular target: 168 GPCRs (Homo sapiens, UniProt Q99500); experiment: as above; details: GPCR EDG3; Antagonist mode; 10 uM
[10] = molecular target: 168 GPCRs (Homo sapiens, UniProt Q96RI0); experiment: as above; details: F2RL3; Antagonist; 1 uM
[11] = molecular target: 168 GPCRs (Homo sapiens, UniProt P08172); experiment: as above; details: CHRM2; Antagonist; 1 uM
[12] = molecular target: 168 GPCRs (Homo sapiens, UniProt P41586); experiment: as above; details: ADCYAP1R1; Antagonist; 1 uM
[13] = molecular target: 168 GPCRs (Homo sapiens, UniProt P48039); experiment: as above; details: GPCR MTNR1A; Antagonist mode; 10 uM
[14] = molecular target: 168 GPCRs (Homo sapiens, UniProt Q969F8); experiment: as above; details: KISS1R; Antagonist; 1 uM
[15] = molecular target: 168 GPCRs (Homo sapiens, UniProt P30988); experiment: as above; details: CALCR-RAMP3, Antagonist
[16] = molecular target: 168 GPCRs (Homo sapiens, UniProt P50391); experiment: as above; details: PPYR1; Antagonist; 1 uM
[17] = molecular target: 168 GPCRs (Homo sapiens, UniProt P41231); experiment: as above; details: GPCR P2RY2; Antagonist mode; 10 uM
[18] = molecular target: 168 GPCRs (Homo sapiens, UniProt P21462); experiment: as above; details: FPR1; Antagonist; 1 uM
Chain of 168 GPCRs (Homo sapiens, UniProt P21462) (P21462 whole entry): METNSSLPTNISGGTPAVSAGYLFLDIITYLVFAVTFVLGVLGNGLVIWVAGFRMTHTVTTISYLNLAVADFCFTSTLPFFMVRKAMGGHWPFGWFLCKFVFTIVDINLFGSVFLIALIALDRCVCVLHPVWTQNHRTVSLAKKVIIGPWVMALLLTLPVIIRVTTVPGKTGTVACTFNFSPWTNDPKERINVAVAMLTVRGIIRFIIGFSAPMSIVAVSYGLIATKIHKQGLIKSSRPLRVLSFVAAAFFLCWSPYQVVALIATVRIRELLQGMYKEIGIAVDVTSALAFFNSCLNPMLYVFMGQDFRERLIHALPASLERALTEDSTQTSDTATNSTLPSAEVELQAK

Chain of 168 GPCRs (Homo sapiens, UniProt P30988) (P30988 25-474): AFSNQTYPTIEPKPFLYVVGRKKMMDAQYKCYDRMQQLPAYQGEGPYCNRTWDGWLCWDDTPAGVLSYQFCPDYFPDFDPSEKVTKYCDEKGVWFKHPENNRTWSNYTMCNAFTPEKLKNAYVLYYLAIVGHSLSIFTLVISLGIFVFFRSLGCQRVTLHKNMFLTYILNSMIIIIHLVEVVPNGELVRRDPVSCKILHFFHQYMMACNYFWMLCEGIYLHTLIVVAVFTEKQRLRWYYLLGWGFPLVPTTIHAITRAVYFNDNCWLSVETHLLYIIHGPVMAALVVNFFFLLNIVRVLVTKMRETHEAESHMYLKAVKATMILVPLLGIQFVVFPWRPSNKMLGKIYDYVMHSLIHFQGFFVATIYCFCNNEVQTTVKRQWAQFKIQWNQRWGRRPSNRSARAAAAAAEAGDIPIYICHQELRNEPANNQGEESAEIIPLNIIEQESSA
Chain of 168 GPCRs (Homo sapiens, UniProt P41231) (P41231 whole entry): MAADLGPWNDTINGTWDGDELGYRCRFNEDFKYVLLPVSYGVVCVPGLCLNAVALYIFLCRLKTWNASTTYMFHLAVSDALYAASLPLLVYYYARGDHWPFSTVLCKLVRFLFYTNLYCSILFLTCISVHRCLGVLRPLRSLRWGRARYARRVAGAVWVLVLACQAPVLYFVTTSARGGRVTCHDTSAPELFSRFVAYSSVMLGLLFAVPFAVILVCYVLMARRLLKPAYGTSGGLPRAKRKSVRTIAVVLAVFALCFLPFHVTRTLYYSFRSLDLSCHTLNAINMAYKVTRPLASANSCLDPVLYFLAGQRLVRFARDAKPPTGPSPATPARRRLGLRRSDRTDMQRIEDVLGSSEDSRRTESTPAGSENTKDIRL
Chain of 168 GPCRs (Homo sapiens, UniProt P41968) (P41968 whole entry): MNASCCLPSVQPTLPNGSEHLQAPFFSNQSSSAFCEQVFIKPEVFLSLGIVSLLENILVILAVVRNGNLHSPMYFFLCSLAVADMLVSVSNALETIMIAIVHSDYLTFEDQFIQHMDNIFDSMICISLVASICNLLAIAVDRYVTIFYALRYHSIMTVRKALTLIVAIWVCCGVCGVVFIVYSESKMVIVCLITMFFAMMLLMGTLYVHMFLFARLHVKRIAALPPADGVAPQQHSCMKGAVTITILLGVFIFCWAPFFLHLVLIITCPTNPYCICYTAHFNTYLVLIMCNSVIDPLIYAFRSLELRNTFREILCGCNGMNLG
Chain of 168 GPCRs (Homo sapiens, UniProt P48039) (P48039 whole entry): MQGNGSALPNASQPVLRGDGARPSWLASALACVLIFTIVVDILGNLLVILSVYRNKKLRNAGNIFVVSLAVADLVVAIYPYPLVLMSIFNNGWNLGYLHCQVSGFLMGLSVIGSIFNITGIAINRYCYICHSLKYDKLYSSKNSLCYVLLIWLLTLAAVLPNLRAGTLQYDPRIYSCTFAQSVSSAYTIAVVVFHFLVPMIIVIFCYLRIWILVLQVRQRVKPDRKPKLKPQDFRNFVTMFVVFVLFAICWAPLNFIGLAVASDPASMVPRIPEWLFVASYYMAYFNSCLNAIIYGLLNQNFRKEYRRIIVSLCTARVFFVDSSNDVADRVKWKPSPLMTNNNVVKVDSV
Chain of 168 GPCRs (Homo sapiens, UniProt P47872) (P47872 23-440): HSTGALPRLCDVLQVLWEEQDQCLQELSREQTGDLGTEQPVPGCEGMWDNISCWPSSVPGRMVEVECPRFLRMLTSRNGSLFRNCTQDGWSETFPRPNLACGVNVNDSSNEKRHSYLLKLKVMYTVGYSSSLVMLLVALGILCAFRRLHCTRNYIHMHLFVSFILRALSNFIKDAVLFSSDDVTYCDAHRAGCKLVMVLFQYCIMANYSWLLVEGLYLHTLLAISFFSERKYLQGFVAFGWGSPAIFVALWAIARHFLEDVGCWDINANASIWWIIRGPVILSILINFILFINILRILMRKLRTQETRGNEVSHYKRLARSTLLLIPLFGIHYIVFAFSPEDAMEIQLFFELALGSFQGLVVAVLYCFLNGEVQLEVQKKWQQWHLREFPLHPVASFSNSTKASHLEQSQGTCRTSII
Chain of 168 GPCRs (Homo sapiens, UniProt O95838) (O95838 whole entry): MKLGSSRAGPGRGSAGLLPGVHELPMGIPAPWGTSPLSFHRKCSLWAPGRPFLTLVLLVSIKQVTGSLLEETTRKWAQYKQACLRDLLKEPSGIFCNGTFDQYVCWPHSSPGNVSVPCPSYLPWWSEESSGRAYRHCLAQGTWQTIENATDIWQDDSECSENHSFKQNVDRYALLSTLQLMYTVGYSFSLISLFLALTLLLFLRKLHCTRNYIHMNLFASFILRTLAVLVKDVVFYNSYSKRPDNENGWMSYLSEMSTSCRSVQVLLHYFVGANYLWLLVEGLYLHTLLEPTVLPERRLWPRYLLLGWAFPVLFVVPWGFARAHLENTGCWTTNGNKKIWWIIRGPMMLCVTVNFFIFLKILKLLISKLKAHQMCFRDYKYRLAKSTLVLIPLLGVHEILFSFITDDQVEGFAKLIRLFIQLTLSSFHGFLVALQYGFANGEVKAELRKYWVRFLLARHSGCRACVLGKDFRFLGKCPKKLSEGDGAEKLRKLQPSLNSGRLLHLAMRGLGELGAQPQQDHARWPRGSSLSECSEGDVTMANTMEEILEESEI
Chain of 168 GPCRs (Homo sapiens, UniProt Q96RI0) (Q96RI0 18-385): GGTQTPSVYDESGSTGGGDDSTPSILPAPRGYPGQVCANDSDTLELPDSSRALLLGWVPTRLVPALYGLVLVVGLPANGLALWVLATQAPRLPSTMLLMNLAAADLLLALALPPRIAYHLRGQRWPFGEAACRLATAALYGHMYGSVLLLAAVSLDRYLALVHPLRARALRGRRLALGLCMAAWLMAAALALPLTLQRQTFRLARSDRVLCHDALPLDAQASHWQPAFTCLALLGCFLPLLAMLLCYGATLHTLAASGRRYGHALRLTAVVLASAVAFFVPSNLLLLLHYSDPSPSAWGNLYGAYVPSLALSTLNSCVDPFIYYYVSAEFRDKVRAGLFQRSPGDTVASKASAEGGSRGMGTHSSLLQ
Chain of 168 GPCRs (Homo sapiens, UniProt P41586) (P41586 21-468): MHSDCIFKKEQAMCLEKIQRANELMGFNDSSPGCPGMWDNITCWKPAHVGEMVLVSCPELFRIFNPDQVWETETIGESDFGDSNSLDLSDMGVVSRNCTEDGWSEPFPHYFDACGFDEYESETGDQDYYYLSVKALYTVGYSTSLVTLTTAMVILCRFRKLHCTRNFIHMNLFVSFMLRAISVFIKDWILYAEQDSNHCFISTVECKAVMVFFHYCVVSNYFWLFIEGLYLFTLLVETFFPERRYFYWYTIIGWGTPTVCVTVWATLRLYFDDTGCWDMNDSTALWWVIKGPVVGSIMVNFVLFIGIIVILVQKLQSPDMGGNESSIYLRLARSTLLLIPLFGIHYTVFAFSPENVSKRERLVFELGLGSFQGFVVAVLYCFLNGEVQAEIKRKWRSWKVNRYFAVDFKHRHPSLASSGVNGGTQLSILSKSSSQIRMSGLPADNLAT
Chain of 168 GPCRs (Homo sapiens, UniProt Q8TDS5) (Q8TDS5 whole entry): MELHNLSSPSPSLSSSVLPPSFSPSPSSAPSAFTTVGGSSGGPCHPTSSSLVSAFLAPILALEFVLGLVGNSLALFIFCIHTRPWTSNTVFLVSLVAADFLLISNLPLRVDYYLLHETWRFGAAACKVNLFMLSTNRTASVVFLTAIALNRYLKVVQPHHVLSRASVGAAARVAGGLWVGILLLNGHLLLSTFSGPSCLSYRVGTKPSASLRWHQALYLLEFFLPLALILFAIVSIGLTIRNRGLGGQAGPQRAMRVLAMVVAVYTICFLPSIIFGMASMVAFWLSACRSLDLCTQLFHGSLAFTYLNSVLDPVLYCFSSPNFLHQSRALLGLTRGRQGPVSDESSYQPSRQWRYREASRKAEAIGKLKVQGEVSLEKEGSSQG
Chain of 168 GPCRs (Homo sapiens, UniProt Q99500) (Q99500 whole entry): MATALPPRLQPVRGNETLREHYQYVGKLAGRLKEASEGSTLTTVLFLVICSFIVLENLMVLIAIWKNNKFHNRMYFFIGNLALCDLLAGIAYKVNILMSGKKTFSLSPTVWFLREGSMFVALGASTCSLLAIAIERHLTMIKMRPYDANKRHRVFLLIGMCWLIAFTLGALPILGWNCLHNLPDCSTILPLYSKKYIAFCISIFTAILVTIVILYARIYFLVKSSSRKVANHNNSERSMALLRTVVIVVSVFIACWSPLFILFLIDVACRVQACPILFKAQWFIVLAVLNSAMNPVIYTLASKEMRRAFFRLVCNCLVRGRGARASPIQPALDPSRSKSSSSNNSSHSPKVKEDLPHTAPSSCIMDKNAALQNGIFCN
Chain of 168 GPCRs (Homo sapiens, UniProt P08172) (P08172 whole entry): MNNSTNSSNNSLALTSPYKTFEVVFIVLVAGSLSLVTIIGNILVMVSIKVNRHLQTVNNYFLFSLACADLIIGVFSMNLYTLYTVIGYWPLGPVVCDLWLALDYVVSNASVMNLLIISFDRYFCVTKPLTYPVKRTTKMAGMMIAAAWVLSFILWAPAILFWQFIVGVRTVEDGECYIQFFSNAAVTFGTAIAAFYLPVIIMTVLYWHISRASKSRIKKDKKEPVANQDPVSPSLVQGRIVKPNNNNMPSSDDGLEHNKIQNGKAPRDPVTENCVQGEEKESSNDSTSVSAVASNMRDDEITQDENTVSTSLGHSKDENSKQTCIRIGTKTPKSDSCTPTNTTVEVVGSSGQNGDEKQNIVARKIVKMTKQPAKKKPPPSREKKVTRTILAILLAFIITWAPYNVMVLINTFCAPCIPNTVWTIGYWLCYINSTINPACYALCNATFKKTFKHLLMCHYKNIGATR

Compound: CNC(C)C(=O)c1ccc2c(c1)OCO2 (stereo not shown) [methylone, 3,4-methylenedioxy-N-methylcathinone]
- fear extinction training on day 3 ([1]; Example 35, all doses (10, 20, 30 mg/kg IP)): significantly improved fear extinction training
- effect on fear extinction training and testing ([1]; Example 35, methylone 30 mg/kg IP 30 min before extinction training on day 3): rapid, robust and long-lasting beneficial effect
- enhancement of fear extinction recall vs saline ([1]; methylone 30 mg/kg IP 30 min before extinction training, day 3): ~60%
- locomotion during testing session ([1]; methylone 30 mg/kg IP, day 3): no differences between groups in locomotion
- activity at 10 µM [2]: -6.8%
- activity at 1 µM [3]: 6.4%
- activity at 10 µM [4]: ~7%
- activity at 10 µM [5]: -2.6%
- activity at 10 µM [6]: -0.3%
- activity at 1 µM [7]: ~6%
- activity at 1 µM [8]: -6.9%
- activity at 10 µM [9]: -13.6%
- activity at 1 µM [10]: ~-11%
- activity at 1 µM [11]: -18.9%
- activity at 1 µM [12]: ~13%
- activity at 10 µM [13]: ~7%
- activity at 1 µM [14]: 25.7%
- activity at 1 µM ([15]; 1 uM): ~-8%
- activity at 10 µM ([15]; 10 uM): -3.3%
- activity at 1 µM [16]: ~9%
- activity at 10 µM [17]: ~1%
- activity at 1 µM [18]: ~-4%
